Columns and labels:
[1] = system: C57BL/6JL Lep ob/Lep ob mice; assay: Blood biomarkers (lipid, glucose, enzyme levels) in ob/ob mice; type: in vivo; design: unit not given here; conditions: after mixed-feed of 0.4% for 18 days
Description: (§1) 10-week-old C57BL/6JL Lep ob/Lep ob male mice having obesity characteristics and predisposition were purchased from Daehan Biolink Co., Ltd. (Chungchongbuk-do, Korea). Animals were raised in a breeding room maintained at a temperature of 23° C., 55% humidity, illumination of 300 to 500 lux, a 12-h light/dark (L/D) cycle, and ventilation of 10 to 18 times/hr. Animals were fed ad libitum pellets of Purina Rodent Laboratory Chow 5001 (purchased from Purina Mills Inc., St. Louis, Mo., USA) as a solid feed for experimental animals and tap water as drinking water. Mice were allowed to acclimate to new environment of the breeding room for two weeks and were then administered some pyrano-3,4-phenanthrenequinone or furano-3,4-naphthoquinone derivatives synthesized according to the present invention at mixed-feed of 0.4% for 18 days. Observation was made on changes in body weight, blood glucose and dietary intake, with respect to a time course of administration. After administration was complete, confirm changes in glucose, lipid and enzyme levels in blood.
(§2) For comparison, the same experiments were carried out for the subject (negative control group) to which the active ingredient was not administered, and subject (positive control group) to which Cryptotanshinone, extracted from Danshen by a method as set forth in Example 1 of the Korean Patent Application No. 2004-0116339 by the present applicant, was administered by the above-mentioned condition.

AMPK = assay: Determination of AMPK activation in differentiated C2C12 myoblast cells (SAMS peptide, [γ-32P]ATP); type: cell-based; conditions: C2C12 myoblast cells treated at 5 μg/ml; DMSO (0.5%) control = 1
Description: Myoblast cells, C2C12, were cultured in DMEM containing 10% bovine calf serum. When a cell density reached a range of about 85% to 90%, the culture medium was replaced with a medium containing 1% bovine calf serum to induce differentiation of cells. The thus-differentiated myoblast cells were treated with samples synthesized in Examples 1 through 16 at a concentration of 5 μg/ml, and compared with a control group. Enzymatic activity of AMPK was determined as follows. Firstly, C2C12 cells were lysed to obtain protein extracts and then ammonium sulfate was added to a final concentration of 30%, thereby precipitating proteins. Protein precipitates were dissolved in a buffer (62.5 mM Hepes, pH 7.2, 62.5 mM NaCl, 62.5 mM NaF, 1.25 mM Na pyrophosphate, 1.25 mM EDTA, 1 mM DTT, 0.1 mM PMSF, and 200 μM AMP). Thereafter, 200 μM SAMS peptide (HMRSAMSGLHLVKRR: the underlined serine residue is a phosphorylation site, as an AMPK phosphorylation site of acetyl-CoA carboxylase) and [γ-32P]ATP were added thereto and reactants were reacted for 10 minutes at 30° C. This was followed by spotting of the resulting reaction solution on p81 phosphocellulose paper. The p81 paper was washed with a 3% phosphoric acid solution and radioactivity thereof was measured. For each reaction condition, reactions involving no SAMS peptide were also conducted and basic values were subtracted from the thus-observed values.

[2] = system: C57BL/6JL Lep ob/Lep ob mice; assay: Weight loss effects in obese mice (ob/ob); type: in vivo; conditions: mixed-feed of 0.4% for 18 days; for change in vivo at 0.4 % in feed: Mus musculus, po, 432 h, read-out: Increase in BW; for Final BW: ob/ob male mice
Description: as §1, §2
Herein, ‘Increase in BW’ is calculated as the following; Increase in BW=(Final BW−Initial BW)/Initial BW×100

[3] = (Final BW−Initial BW)/Initial BW×100

CC1CC2=C(O1)c1ccc3ccc(Cl)cc3c1C(=O)C2=O (stereo not shown) [Example 13, 8-Chloro-2-methyl-1,2-dihydro-phenanthro[1,2-b]furan-10,11-dione]
GOT [1]: 373.5 | GPT [1]: 184.0 | HDL chol [1]: 44.0 | LDL chol [1]: 12.00 | T. chol [1]: 125.5 | glucose [1]: 138 | triglyceride [1]: 85.3 | AMPK fold (AMPK): 2.3 fold | change in vivo at 0.4 % in feed [2, 3]: -6.3% | Final BW [2]: 48.8 ± 2.5 g

CC1CC2=C(O1)c1ccc3ccc(C(C)(C)C)cc3c1C(=O)C2=O (stereo not shown) [Example 11, 8-tert-Butyl-2-methyl-1,2-dihydro-phenanthro[1,2-b]furan-10,11-dione]
GOT [1]: 347.5 | GPT [1]: 197.5 | HDL chol [1]: 47.5 | LDL chol [1]: 9.95 | T. chol [1]: 134.0 | glucose [1]: 175 | triglyceride [1]: 82.0 | AMPK fold (AMPK): 2.3 fold | change in vivo at 0.4 % in feed [2, 3]: -1.2% | Final BW [2]: 52.2 ± 1.4 g

Cc1cc2c(c3ccccc13)C(=O)C(=O)C1=C2OC(C)C1(C)C (stereo not shown) [Example 10, 1,1,2,5-Tetramethyl-1,2-dihydro-phenanthro[1,2-b]furan-10,11-dione]
GOT [1]: 283.3 | GPT [1]: 66.7 | HDL chol [1]: 45.0 | LDL chol [1]: 5.00 | T. chol [1]: 115.0 | glucose [1]: 121 | triglyceride [1]: 88.3 | AMPK fold (AMPK): 2.4 fold | change in vivo at 0.4 % in feed [2, 3]: -20.3% | Final BW [2]: 41.1 ± 1.3 g

CC1(C)CCC2=C(O1)c1ccc3c(c1C(=O)C2=O)CCCC3 [Example 6, 3,3-Dimethyl-2,3,7,8,9,10-hexahydro-1H-4-oxa-chrysene-11,12-dione]
GOT [1]: 392.5 | GPT [1]: 250.0 | HDL chol [1]: 49.0 | LDL chol [1]: 13.00 | T. chol [1]: 129.5 | glucose [1]: 145 | triglyceride [1]: 69.5 | AMPK fold (AMPK): 2.2 fold | change in vivo at 0.4 % in feed [2, 3]: -6.3% | Final BW [2]: 49.0 ± 2.7 g

Cc1ccc2ccc3c(c2c1)C(=O)C(=O)C1=C3OC(C)C1 (stereo not shown) [Example 14, 2,8-Dimethyl-1,2-dihydro-phenanthro[1,2-b]furan-10,11-dione]
GOT [1]: 283.3 | GPT [1]: 66.7 | HDL chol [1]: 45.0 | LDL chol [1]: 5.00 | T. chol [1]: 115.0 | glucose [1]: 146 | triglyceride [1]: 88.3 | AMPK fold (AMPK): 2.5 fold | change in vivo at 0.4 % in feed [2, 3]: -7% | Final BW [2]: 48.7 ± 1.9 g

CC1CC2=C(O1)c1ccc3c(c1C(=O)C2=O)CCCC3(C)C (single isomer, unassigned) [Example 2, 2,6,6-Trimethyl-1,2,6,7,8,9-hexahydro-phenanthro[1,2-b]furan-10,11-dione]
GOT ([1]; listed as Ex. 2): 378.8 | GPT ([1]; listed as Ex. 2): 215.0 | HDL chol ([1]; listed as Ex. 2): 38.8 | LDL chol ([1]; listed as Ex. 2): 21.67 | T. chol ([1]; listed as Ex. 2): 125.0 | glucose ([1]; listed as Ex. 2): 125 | triglyceride ([1]; listed as Ex. 2): 58.8 | AMPK fold (AMPK): 2.4 fold | Increase in BW [2, 3]: −15.9% | Final BW [2]: 44.4 ± 3.4 g

Cc1cc2c(c3ccccc13)C(=O)C(=O)C1=C2OC(C)(C)CC1 [Example 16, 3,3,6-Trimethyl-2,3-dihydro-1H-4-oxa-chrysene-11,12-dione]
GOT [1]: 342.5 | GPT [1]: 197.5 | HDL chol [1]: 47.0 | LDL chol [1]: 12.00 | T. chol [1]: 140.0 | glucose [1]: 135 | triglyceride [1]: 82.3 | AMPK fold (AMPK): 1.9 fold | change in vivo at 0.4 % in feed [2, 3]: -7.2% | Final BW [2]: 48.0 ± 1.9 g

Cc1cc2c(c3ccccc13)C(=O)C(=O)C1=C2OC(C)C1 (stereo not shown) [Example 9, 2,5-Dimethyl-1,2-dihydro-phenanthro[1,2-b]furan-10,11-dione]
GOT [1]: 355.0 | GPT [1]: 77.0 | HDL chol [1]: 48.0 | LDL chol [1]: 11.00 | T. chol [1]: 135.0 | glucose [1]: 136 | triglyceride [1]: 72.0 | AMPK fold (AMPK): 2.3 fold | change in vivo at 0.4 % in feed [2, 3]: -6% | Final BW [2]: 48.9 ± 1.7 g

C[C@H]1COC2=C1C(=O)C(=O)c1c2ccc2c1CCCC2(C)C [Positive control group, Cryptotanshinone, reference compound]
GOT [1]: 255.0 | GPT [1]: 149.0 | HDL chol [1]: 48.0 | LDL chol [1]: 11.0 | T. chol [1]: 135.0 | triglyceride [1]: 100.9 | change in vivo at 0.4 % in feed [2, 3]: -1.2% | Final BW [2]: 51.6 ± 1.7 g

CC1OC2=C(C(=O)C(=O)c3c2ccc2ccccc32)C1(C)C (stereo not shown) [Example 8, 1,1,2-Trimethyl-1,2-dihydro-phenanthro[1,2-b]furan-10,11-dione]
GOT [1]: 376.5 | GPT [1]: 241.0 | HDL chol [1]: 48.0 | LDL chol [1]: 13.75 | T. chol [1]: 132.5 | glucose [1]: 118 | triglyceride [1]: 79.5 | AMPK fold (AMPK): 2.5 fold | change in vivo at 0.4 % in feed [2, 3]: -20.3% | Final BW [2]: 41.1 ± 1.3 g

COc1ccc2ccc3c(c2c1)C(=O)C(=O)C1=C3OC(C)C1 (stereo not shown) [Example 15, 8-Methoxy-2-methyl-1,2-dihydro-phenanthro[1,2-b]furan-10,11-dione]
GOT [1]: 312.5 | GPT [1]: 206.7 | HDL chol [1]: 46.0 | LDL chol [1]: 8.75 | T. chol [1]: 142.0 | glucose [1]: 155 | triglyceride [1]: 79.0 | AMPK fold (AMPK): 2.2 fold | change in vivo at 0.4 % in feed [2, 3]: -6.7% | Final BW [2]: 48.5 ± 1.5 g

CC1CC2=C(O1)c1ccc3c(c1C(=O)C2=O)CCCC3 (stereo not shown) [Example 1, 2-Methyl-1,2,6,7,8,9-hexahydro-phenanthro[1,2-b]furan-10,11-dione]
GOT [1]: 233.3 | GPT [1]: 118.8 | HDL chol [1]: 42.5 | LDL chol [1]: 13.00 | T. chol [1]: 141.7 | glucose [1]: 120 | triglyceride [1]: 81.7 | AMPK fold (AMPK): 2.2 fold | change in vivo at 0.4 % in feed [2, 3]: -14.2% | Final BW [2]: 45.3 ± 1.7 g

CC1C2=C(OC1(C)C)c1ccc3c(c1C(=O)C2=O)CCCC3(C)C (stereo not shown) [Example 5, 1,2,2,6,6-Pentamethyl-1,2,6,7,8,9-hexahydro-phenanthro[1,2-b]furan-10,11-dione]
GOT [1]: 377.5 | GPT [1]: 251.0 | HDL chol [1]: 45.5 | LDL chol [1]: 14.05 | T. chol [1]: 126.5 | glucose [1]: 141 | triglyceride [1]: 77.0 | AMPK fold (AMPK): 2.3 fold | change in vivo at 0.4 % in feed [2, 3]: -7.8% | Final BW [2]: 47.9 ± 3.1 g

CC1OC2=C(C(=O)C(=O)c3c2ccc2c3CCCC2(C)C)C1(C)C (stereo not shown) [Example 4, 1,1,2,6,6-Pentamethyl-1,2,6,7,8,9-hexahydro-phenanthro[1,2-b]furan-10,11-dione]
GOT [1]: 476.7 | GPT [1]: 285.0 | HDL chol [1]: 45.0 | LDL chol [1]: 10.00 | T. chol [1]: 127.5 | glucose [1]: 128 | triglyceride [1]: 76.7 | AMPK fold (AMPK): 2.2 fold | change in vivo at 0.4 % in feed [2, 3]: -7.1% | Final BW [2]: 48.6 ± 3.3 g

CC1CC2=C(O1)c1ccc3ccccc3c1C(=O)C2=O (stereo not shown) [Example 7, 2-Methyl-1,2-dihydro-phenanthro[1,2-b]furan-10,11-dione]
GOT [1]: 286.7 | GPT [1]: 143.8 | HDL chol [1]: 58.8 | LDL chol [1]: 14.00 | T. chol [1]: 148.8 | glucose [1]: 156 | triglyceride [1]: 70.0 | AMPK fold (AMPK): 2.2 fold | change in vivo at 0.4 % in feed [2, 3]: -3.9% | Final BW [2]: 49.6 ± 2.6 g
